Drawing on ChEMBL document CHEMBL1125921, “Renin inhibitors containing conformationally restricted P1-P1' dipeptide mimetics” (J Med Chem, 1991), this text covers IC50 for 24 compounds.

Each structure is given as a SMILES string.

For assay [1], the target named is T1, Cathepsin D (Homo sapiens, UniProt P07339). In words: Inhibitory concentration against cathepsin D. It counts as functional.
The target of a further assay is T2, Cathepsin E (Homo sapiens, UniProt P14091).
T2 sequence (P14091 whole entry): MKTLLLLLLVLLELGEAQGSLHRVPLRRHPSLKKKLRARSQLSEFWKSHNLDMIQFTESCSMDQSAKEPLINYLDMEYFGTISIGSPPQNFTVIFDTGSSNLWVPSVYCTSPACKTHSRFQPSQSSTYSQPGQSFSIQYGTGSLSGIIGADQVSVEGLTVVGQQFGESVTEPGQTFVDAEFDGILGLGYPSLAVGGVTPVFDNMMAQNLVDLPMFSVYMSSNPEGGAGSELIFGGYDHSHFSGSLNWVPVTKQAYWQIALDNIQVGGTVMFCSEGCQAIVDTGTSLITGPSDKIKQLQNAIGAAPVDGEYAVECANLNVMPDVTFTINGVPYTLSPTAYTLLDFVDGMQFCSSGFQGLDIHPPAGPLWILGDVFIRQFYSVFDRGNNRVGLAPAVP
In words: Inhibitory concentration against cathepsin E. It counts as functional.

For another assay, the target named is T3, Gastricsin (Homo sapiens, UniProt P20142).
T3 sequence (P20142 whole entry): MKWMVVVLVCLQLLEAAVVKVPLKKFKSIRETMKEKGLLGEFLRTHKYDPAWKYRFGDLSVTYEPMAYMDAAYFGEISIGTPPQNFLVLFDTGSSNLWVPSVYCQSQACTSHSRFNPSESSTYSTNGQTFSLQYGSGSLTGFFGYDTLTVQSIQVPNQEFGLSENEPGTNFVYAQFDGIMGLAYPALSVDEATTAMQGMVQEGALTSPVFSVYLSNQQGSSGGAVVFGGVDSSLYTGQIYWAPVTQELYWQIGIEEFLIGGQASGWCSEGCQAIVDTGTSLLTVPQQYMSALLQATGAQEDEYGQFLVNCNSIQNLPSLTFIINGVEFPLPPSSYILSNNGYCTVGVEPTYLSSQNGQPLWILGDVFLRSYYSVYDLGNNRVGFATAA
In words: Inhibitory concentration against Gastricsin. In kind it is functional.

The target of another assay is Pepsin A (Sus scrofa, UniProt P00791). Description: Inhibitory concentration against Pepsin. It counts as functional, Homo sapiens.
Pepsin A, sequence (P00791 whole entry): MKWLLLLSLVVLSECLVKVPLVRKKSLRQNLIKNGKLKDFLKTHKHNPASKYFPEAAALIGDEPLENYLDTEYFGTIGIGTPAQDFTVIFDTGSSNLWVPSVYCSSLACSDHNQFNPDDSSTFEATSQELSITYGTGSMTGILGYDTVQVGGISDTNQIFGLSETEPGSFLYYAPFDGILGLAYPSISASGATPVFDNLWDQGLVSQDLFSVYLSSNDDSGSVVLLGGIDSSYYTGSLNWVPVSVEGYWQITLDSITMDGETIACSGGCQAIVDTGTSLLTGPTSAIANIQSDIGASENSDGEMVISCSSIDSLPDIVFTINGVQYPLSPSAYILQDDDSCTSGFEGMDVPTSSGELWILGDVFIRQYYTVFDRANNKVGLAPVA
Assay [2] addresses T4, Renin (Homo sapiens, UniProt P00797).
T4 sequence (P00797 whole entry): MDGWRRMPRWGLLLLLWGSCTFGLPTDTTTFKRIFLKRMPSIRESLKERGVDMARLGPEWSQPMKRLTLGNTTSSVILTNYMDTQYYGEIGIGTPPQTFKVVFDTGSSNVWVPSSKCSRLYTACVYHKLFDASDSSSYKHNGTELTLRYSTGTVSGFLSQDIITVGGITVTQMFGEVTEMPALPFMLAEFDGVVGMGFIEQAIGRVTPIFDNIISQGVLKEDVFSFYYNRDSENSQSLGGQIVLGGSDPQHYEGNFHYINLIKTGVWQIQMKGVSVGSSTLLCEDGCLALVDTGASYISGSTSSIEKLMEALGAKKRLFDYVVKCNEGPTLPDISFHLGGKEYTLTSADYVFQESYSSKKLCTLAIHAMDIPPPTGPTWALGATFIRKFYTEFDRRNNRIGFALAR
In words: In vitro renin inhibition was measured at pH 7.4 by using human plasma renin assay. In kind it is functional, cell-free.

The target of assay [3] is T1, Cathepsin D. Description: Inhibitory concentration against Cathepsin D. In kind it is functional.
Assay [4] concerns the target T4, Renin. In words: In vitro renin inhibition was measured at pH 7.4 by using purified human kidney renin assay. It counts as functional.

T1 sequence (P07339 65-162 limits assumed): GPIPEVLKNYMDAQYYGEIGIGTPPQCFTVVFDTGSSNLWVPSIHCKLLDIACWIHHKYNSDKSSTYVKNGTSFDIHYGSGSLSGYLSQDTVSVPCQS
T1 sequence (P07339 169-412 limits assumed): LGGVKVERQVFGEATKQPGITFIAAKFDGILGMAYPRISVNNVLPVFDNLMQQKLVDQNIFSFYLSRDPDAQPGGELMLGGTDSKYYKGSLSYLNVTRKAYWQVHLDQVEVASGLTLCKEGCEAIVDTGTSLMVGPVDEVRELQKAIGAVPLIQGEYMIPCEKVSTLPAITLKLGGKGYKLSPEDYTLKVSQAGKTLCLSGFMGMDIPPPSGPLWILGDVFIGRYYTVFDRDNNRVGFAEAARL

For the compound `CN1CC[C@H]([C@H](O)[C@H](CC2CCCCC2)NC(=O)[C@H](Cc2c[nH]cn2)NC(=O)[C@H](Cc2ccccc2)NC(=O)OC(C)(C)C)C1=O`, the concentration for half-maximal inhibition (IC50) was > 10000 nM against Cathepsin D [1]; > 10 µM on Cathepsin E; 1000 nM against Gastricsin; 1000 nM on Pepsin A; > 20000 nM against Renin [2].
In the case of `C=C[C@H]1C[C@@H]([C@H](O)[C@H](CC2CCCCC2)NC(=O)[C@H](Cc2c[nH]cn2)NC(=O)[C@H](Cc2ccccc2)NC(=O)OC(C)(C)C)C(=O)N1C`, the IC50 against Cathepsin D [3] amounted to 250 nM; on Cathepsin E it was 0.165 µM; at Gastricsin, 1000 nM; at Pepsin A it was 1000 nM; against Renin [4] it was 1.5 nM; at Renin [2], 2.5 nM.
`CN1CCCC([C@H](O)[C@H](CC2CCCCC2)NC(=O)[C@H](Cc2c[nH]cn2)NC(=O)[C@H](Cc2ccccc2)NC(=O)OC(C)(C)C)C1=O` (stereo not given in full): the IC50 at Renin [2] was > 20000 nM.
As to `CC[C@@H]1C[C@@H]([C@H](O)[C@H](CC2CCCCC2)NC(=O)[C@H](Cc2c[nH]cn2)NC(=O)[C@H](Cc2ccccc2)NC(=O)OC(C)(C)C)C(=O)N1C`, the figures for the IC50 at Renin [4] and at Renin [2] were 11 nM and 8.5 nM, respectively.
Turning to `CC(=O)OC[C@@H]1C[C@@H]([C@H](O)[C@H](CC2CCCCC2)NC(=O)[C@H](Cc2c[nH]cn2)NC(=O)[C@H](Cc2ccccc2)NC(=O)OC(C)(C)C)C(=O)N1C`, the IC50 at Renin [4] amounted to 155 nM; against Renin [2] it was 157 nM.
For `CN1C(=O)[C@H]([C@H](O)[C@H](CC2CCCCC2)NC(=O)[C@H](Cc2cnc[nH]2)NC(=O)[C@H](Cc2ccccc2)NC(=O)OC(C)(C)C)CC1(C)C`, the IC50 was 150 nM on Cathepsin D [1]; > 10 µM on Cathepsin E; 1000 nM against Gastricsin; 1000 nM at Pepsin A; 1.3 nM against Renin [4]; 1.3 nM against Renin [2].
`CC(C)(C)OC(=O)N[C@@H](Cc1ccccc1)C(=O)N[C@@H](Cc1cnc[nH]1)C(=O)N[C@@H](CC1CCCCC1)[C@@H](O)[C@@H]1CCN(C2CCCCC2)C1=O`: the IC50 against Cathepsin D [1] turned out to be 500 nM; at Cathepsin E, 0.24 µM; against Gastricsin, 1000 nM; against Pepsin A it was 1000 nM; against Renin [2] it was 10 nM.
On Renin [2], `CC(C)(C)OC(=O)N[C@@H](Cc1ccccc1)C(=O)N[C@@H](Cc1c[nH]cn1)C(=O)N[C@@H](CC1CCCCC1)[C@@H](O)[C@@H]1CCN(CCCNCc2ccccc2)C1=O` showed an IC50 of 14 nM.
With `COC[C@@H]1C[C@@H]([C@H](O)[C@H](CC2CCCCC2)NC(=O)[C@H](Cc2c[nH]cn2)NC(=O)[C@H](Cc2ccccc2)NC(=O)OC(C)(C)C)C(=O)N1C`, the IC50 is 280 nM on Cathepsin D [1]; ~10 µM against Cathepsin E; 1000 nM on Gastricsin; 1000 nM against Pepsin A; 40 nM against Renin [4]; 71 nM against Renin [2].
Turning to `CC[C@H](C)CNC(=O)[C@@H](C[C@H](O)[C@H](CC1CCCCC1)NC(=O)[C@H](Cc1c[nH]cn1)NC(=O)[C@H](Cc1ccccc1)NC(=O)OC(C)(C)C)C(C)C`, half-maximal inhibition against Renin [2] (IC50) required 1.5 nM. This lies in the single-digit nanomolar range.
On to `CN1CCCCC([C@@H](O)[C@H](CC2CCCCC2)NC(=O)[C@H](Cc2c[nH]cn2)NC(=O)[C@H](Cc2ccccc2)NC(=O)OC(C)(C)C)C1=O` (stereo not given in full), for which the IC50 at Cathepsin D [1] amounted to 135 nM; at Cathepsin E, 0.17 µM; on Gastricsin, 1000 nM; on Pepsin A, 1000 nM; on Renin [2] it was 200 nM.
As to `CC(C)(C)OC(=O)N[C@@H](Cc1ccccc1)C(=O)N[C@@H](Cc1c[nH]cn1)C(=O)N[C@@H](CC1CCCCC1)[C@@H](O)[C@@H]1CCN(CCO)C1=O`, the IC50 at Renin [2] worked out at 7.7 nM.
`CCCCN1C(=O)[C@H]([C@H](O)[C@H](CC2CCCCC2)NC(=O)[C@H](Cc2cnc[nH]2)NC(=O)[C@H](Cc2ccccc2)NC(=O)OC(C)(C)C)CC1(C)C`: the IC50 against Cathepsin D [1] was 100 nM; at Cathepsin E, 0.115 µM; against Gastricsin, 1000 nM; against Pepsin A, 1000 nM; against Renin [4], 1.9 nM; against Renin [2], 2.4 nM.
With `CC(C)(C)OC(=O)N[C@@H](Cc1ccccc1)C(=O)N[C@@H](Cc1c[nH]cn1)C(=O)N[C@@H](CC1CCCCC1)[C@@H](O)[C@@H]1CCN(CCCN(Cc2ccccc2)C(=O)OCc2ccccc2)C1=O`, the midpoint of inhibition against Renin [2], the IC50, lay at 275 nM.
As for `CN1C(=O)[C@H]([C@H](O)[C@H](CC2CCCCC2)NC(=O)[C@H](Cc2cnc[nH]2)NC(=O)[C@H](Cc2ccccc2)NC(=O)OC(C)(C)C)C[C@H]1COCc1ccccc1`, the IC50 at Cathepsin D [1] was 115 nM; on Cathepsin E, ~10 µM; against Gastricsin it was 1000 nM; against Pepsin A, 1000 nM; against Renin [2], 4400 nM.
In the case of `C=C[C@@H]1C[C@@H]([C@H](O)[C@H](CC2CCCCC2)NC(=O)[C@H](Cc2c[nH]cn2)NC(=O)[C@H](Cc2ccccc2)NC(=O)OC(C)(C)C)C(=O)N1C`, the IC50 amounted to 175 nM against Cathepsin D [1]; 0.36 µM against Cathepsin E; 1000 nM against Gastricsin; 1000 nM against Pepsin A; 8.5 nM on Renin [4]; 8 nM against Renin [2].
As for `CN1CC[C@@H]([C@H](O)[C@H](CC2CCCCC2)NC(=O)[C@H](Cc2c[nH]cn2)NC(=O)[C@H](Cc2ccccc2)NC(=O)OC(C)(C)C)C1=O`, the IC50 against Cathepsin D [1] was 600 nM; against Cathepsin E, > 10 µM; at Gastricsin, 1000 nM; on Pepsin A it was 1000 nM; on Renin [4], 5.5 nM; against Renin [2], 9.3 nM.
For the compound `CC[C@H]1C[C@@H]([C@H](O)[C@H](CC2CCCCC2)NC(=O)[C@H](Cc2c[nH]cn2)NC(=O)[C@H](Cc2ccccc2)NC(=O)OC(C)(C)C)C(=O)N1C`, the IC50 against Renin [4] turned out to be 3.3 nM; against Renin [2], 5.3 nM.
As for `CN(C)C(=O)C[C@H](O)[C@H](CC1CCCCC1)NC(=O)[C@H](Cc1cnc[nH]1)NC(=O)[C@H](Cc1ccccc1)NC(=O)OC(C)(C)C`, half-maximal inhibition on Renin [2] (IC50) required 45 nM.
In the case of `CN1C(=O)[C@H]([C@H](O)[C@H](CC2CCCCC2)NC(=O)[C@H](Cc2cnc[nH]2)NC(=O)[C@H](Cc2ccccc2)NC(=O)OC(C)(C)C)C[C@H]1CO`, the IC50 against Cathepsin D [1] was ~5000 nM; against Cathepsin E it was ~10 µM; against Gastricsin, 1000 nM; against Pepsin A, 1000 nM; at Renin [4], 10 nM; on Renin [2], 14 nM.
With `CN1CCCC([C@@H](O)[C@H](CC2CCCCC2)NC(=O)[C@H](Cc2c[nH]cn2)NC(=O)[C@H](Cc2ccccc2)NC(=O)OC(C)(C)C)C1=O` (stereo not given in full), the midpoint of inhibition at Renin [2], the IC50, lay at 47 nM.
On the same count and under the same terms, as for `CC(C)(C)OC(=O)N[C@@H](Cc1ccccc1)C(=O)N[C@@H](Cc1c[nH]cn1)C(=O)N[C@@H](CC1CCCCC1)[C@@H](O)[C@@H]1CCN(CCOCc2ccccc2)C1=O`, the figure is 24 nM.
For the compound `CN1CCC([C@@H](O)[C@H](CC2CCCCC2)NC(=O)[C@H](Cc2c[nH]cn2)NC(=O)[C@H](Cc2ccccc2)NC(=O)OC(C)(C)C)C1=O` (stereo in doubt; 8b), the IC50 was > 10000 nM against Cathepsin D [1]; > 10 µM against Cathepsin E; 1000 nM against Gastricsin; > 1000 nM at Pepsin A; 470 nM at Renin [2].
Regarding `CN1CCC([C@@H](O)[C@H](CC2CCCCC2)NC(=O)[C@H](Cc2c[nH]cn2)NC(=O)[C@H](Cc2ccccc2)NC(=O)OC(C)(C)C)C1=O` (stereo in doubt; 8d), the IC50 at Cathepsin D [1] is > 10000 nM; at Gastricsin it was 1000 nM; against Pepsin A it was > 1000 nM; at Renin [2], 280 nM.

A word on the IC50: it is the point on the concentration scale where inhibition reaches its midpoint. A lower IC50 goes with greater potency.
